Reference: paper PMC6662706, “Short amylin receptor antagonist peptides improve memory deficits in Alzheimer’s disease mouse model” (Scientific Reports, 2019)
Positions of bridges follow the written chain, without caps; N, C: chain ends. No end group written: not given here.

Key:
[1] = design: method as in PMID 29067318; details: mouse, not told; cited from earlier work
[2] = Brain uptake of R5 compared with davalintide, wild-type and het CTR mice; assay type: in vivo, mouse; details: Cy5.5 labeled, ip 0.1 mmole, intact brain imaged 2 h post-injection, wild-type and het CTR mice, n=5 per group
Description: For peptide R5 brain uptake in comparison to Davlintide, wild-type littermate (C57BL/6 background) mice and heterozygous CTR knockdown mice (50% CTR expression level compared to wild type control mice and presumably with 50% AMY receptor expression level) was used (n=5 in each group). Mouse brains were extracted after 2h from a single injection and fluorescence in brains was quantified as mentioned above.
Supplementary Figure S3: The comparison of brain permeability for R5 and Davalintide.

[3] = Ex vivo NIR fluorescence brain imaging after ip injection (brain penetration); assay type: in vivo, mouse; details: wild-type mice, 0, 0.6, 2, 10, 20 mg/kg single ip dose, 2 h, n = 3 per dose
From the text: Blood brain barrier (BBB) penetration can limit the potential of long sequence peptides as therapeutic agents in central nervous system (CNS). Previously, we have reported that a cyclized form of AC253 peptide and to a lesser degree its linear form can both penetrate the BBB at therapeutically relevant levels, and are localized to the hippocampus and cortex, regions relevant to memory and learning processes. Therefore, we examined the ability of Cy5.5 labeled peptide fragments (R5, and R14) to penetrate BBB in wild-type mice using NIR fluorescence ex vivo brain imaging. Brain fluorescence resulting from either R5 or R14 was assessed against full length AC253 2 h after a single intraperitoneal (ip) injection of peptides. […] Fluorescence signals were distributed throughout the cortex, but particularly strong within the hippocampal regions, where a very high density of amylin receptor expression has been reported. […]
In vivo brain penetration and pharmacokinetics of the peptides were determined in 6-month-old male or female wild-type (C57BL/6 background) and heterozygous CTR mice (het-CTR). […]
For ex vivo imaging experiments and peptide brain uptake, we used age matched 6-month-old wild-type littermate (C57BL/6 background) mice. […] Region of interest was drawn around the brain region and analyzed using the Kodak ID 3.6 software and the mean fluorescence intensity was recorded. […]

[4] = In vitro proteolytic stability in human serum; assay type: in vitro ADME; details: 37°C, intact peptide at different time points estimated by RP-HPLC
Description: Subsequently, we investigated the proteolytic stability of R5, and R14 compared to AC253. […] By assessing the main degradation fragments for both peptides using MALDI-TOF, we found both peptides to be cleaved at the basic arginine amino acids.
Supplementary Figure S2: The comparison of bio-distribution for the fragments and their parent peptide. (A) Ex vivo fluorescence showing bio-distribution images for Cy5.5-R5, R14, AC253 in different organs at after a 2 h of a single ip injection of the peptides (0.1 mmol in 200µl saline). (B) Quantification of peptides fluorescence in each organ (n=3). (C) In vitro stability of R5, R14, and AC253 peptides in human serum compared with AC253 at 37°C. The amount of intact peptide in human serum at different time points was estimated using RP-HPLC.

[5] = target: T1, AMY3 receptor (CTR+RAMP3) expressed on HEK293 cells (HEK-AMY3) (Homo sapiens, UniProt O60896+P30988); assay: Peptide array-cell binding assay (SPOT cellulose membrane, GFP-labeled cells); details: library R1-R14 on cellulose membrane, GFP-labeled HEK-AMY3 vs HEK-WT and HEK-CTR cells
T1 construct: expressed in transfected cells
T1 sequence (P30988 25-474): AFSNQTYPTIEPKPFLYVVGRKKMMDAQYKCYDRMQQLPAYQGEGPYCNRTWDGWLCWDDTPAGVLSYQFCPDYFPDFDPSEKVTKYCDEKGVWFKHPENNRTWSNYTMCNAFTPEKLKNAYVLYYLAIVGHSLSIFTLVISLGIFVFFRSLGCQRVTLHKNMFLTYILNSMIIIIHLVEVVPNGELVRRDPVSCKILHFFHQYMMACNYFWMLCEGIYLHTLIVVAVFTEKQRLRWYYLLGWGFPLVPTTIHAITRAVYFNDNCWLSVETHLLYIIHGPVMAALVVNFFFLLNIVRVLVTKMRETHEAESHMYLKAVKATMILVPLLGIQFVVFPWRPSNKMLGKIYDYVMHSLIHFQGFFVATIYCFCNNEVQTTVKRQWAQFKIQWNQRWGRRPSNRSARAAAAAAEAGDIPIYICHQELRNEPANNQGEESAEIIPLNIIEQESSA
T1 sequence (O60896 24-148): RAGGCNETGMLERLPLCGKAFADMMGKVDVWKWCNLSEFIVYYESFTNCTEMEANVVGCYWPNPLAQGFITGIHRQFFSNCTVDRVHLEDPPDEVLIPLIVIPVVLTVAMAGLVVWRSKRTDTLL
From the text: In order to identify shorter peptides with selective recognition and binding to amylin receptor, enhanced metabolic stability and brain penetrability than the linear full length peptide, we designed a peptide library comprised of 14 different sequences, namely, R1-R14. Fragments (R1−R13) are 12 amino acids in length and peptide R14 is 14 amino acids. The initial fragment comprised the first 12 amino acids from the N-terminus of AC253 sequence, and subsequent fragments derived from shifting one amino acid at a time, as depicted in Supplemental Fig. S1A. […] The relative binding affinities of peptide fragments were determined through measuring and plotting the net fluorescence intensity of the bound GFP labeled live cells on each spot as measured with a fluorescence Kodak imager (Supplemental Fig. S1C). […]
To screen peptide library for amylin receptor binding affinity, transfected GFP-positive Human Embryonic Kidney 293 cells that express AMY3 receptor (CTR+RAMP3) as previously reported was used ^8. […] The membrane was scanned at 465 nm excitation and 535 nm emission and the net fluorescence intensity of each peptide spot was quantified using Kodak IS2000MM Image station (GE Healthcare Systems/ART Inc). […]

hippocampal LTP (CA1) = assay: Hippocampal long-term potentiation (LTP) in slices from wild type mice; design: species or system mouse; details: wild type mouse slices, 250 nM
Description: We examined whether the peptide fragments were capable of influencing Aβ- or hAmylin-induced reduction of hippocampal LTP in mice. Exposure of hippocampal slices from wild-type mice to hAmylin (50 nM) or Aβ (50 nM) depressed LTP induced by a weak tetanization protocol at the CA1 region as previously reported[20],[30]. To determine whether peptides affected hAmylin or Aβ- induced depression of LTP, we applied 250 nM R5 or R14 continuously for 5 min prior to exposure of the hippocampal slices to 50 nM hAmylin or Aβ and the subsequent LTP induction. […] We therefore sought to determine whether peptide fragments were also capable of improving LTP levels in the same TgCRND8 AD mouse model. […] Importantly, doses of the short peptide fragments used in these experiments were equimolar to those used for AC253 and pramlintide in our previous studies[20],[30].
For electrophysiology experiment, hippocampal slices (400-μm thick) were prepared using a vibratome from wild type and TgCRND8 mice (8 month of age, male or female). For long-term potentiation (LTP) measurement, the stimulus strength was set to elicit 40–50% of the maximum fEPSP (field excitatory postsynaptic potential) amplitude and test pulses were delivered once every 30s. LTP was induced by 3-theta-burst stimulation protocol (each burst consisted of four pulses at 100 Hz with a 200-ms interburst interval). All drugs and chemicals were applied directly to the slice via bath perfusion.
Brains were quickly removed from mice following decapitation, placed in a cold artificial cerebral spinal fluid (aCSF) on a vibratome chamber, and transverse sections cut through the hippocampus. The aCSF contained (in millimolar 124 NaCl, 3 KCl, 2.4 CaCl2, 2 MgCl2, 1.25 NaH2PO4, 26 NaHCO3, and 10 D-glucose and was equilibrated with 95 % O2 and 5 % CO2. Hippocampal slices (400-μm thick) were maintained in aCSF-filled holding chamber at room temperature for at least 1 h and individually transferred to the submerged glass bottom recording chamber, which was constantly perfused with aCSF (2 ml/min) at 30 °C. Field excitatory postsynaptic potential (fEPSP) was recorded with a metallic (Pt/Ir) electrode (FHC, Bowdoin, ME) from the stratum radiatum layer of Cornu ammonis 1 region of the hippocampus (CA1) area, and the Schaffer collateral afferents were stimulated with 100-μs test pulses via a bipolar cluster electrode (FHC). For long-term potentiation (LTP) experiments, the stimulus strength was set to elicit 40–50 % of the maximum fEPSP amplitude and test pulses were delivered to Schaffer collaterals once every 30 s. […] Before 3-TBS or drug application, the responses were monitored for at least 10 min to ensure a stable baseline of fEPSP. […]

## pramlintide: synthetic analog of amylin (KCNTATCATQRLANFLVHSSNNFGPILPPTNVGSNTY-NH2; disulfide 2-7; chains of the INN, looked up)
[1]
  brain permeability after systemic administration compared with cAC253 or R5: lower brain permeability

## davalintide [reference compound]
[2]
  brain permeability, R5 versus davalintide: lower brain permeability

## LGRLSQELHRLQTY-NH2 [R14]
[3]
  accumulation in the brain at increasing dose: dose-dependent
[4]
  half-life: 1.5 h

## LQTYPRTNTGSN [R11]
[5]
  relative binding to HEK-AMY3 cells in library screening: minimal binding
Hippocampal LTP (CA1)
  effect of peptide alone on hippocampal LTP: did not impair LTP
